Experimental data as given in ChEMBL document CHEMBL1132521, “Synthesis and hypoglycemic effect of chrysin derivatives” (Bioorg Med Chem Lett, 1999).

Tests used:
[1] = Ratio of hypoglycemic activity in mice was tested on day 7.; format: functional
Mus musculus [2] = test: In vivo hypoglycemic activity after administration (43 mg/kg) in mice on day 0 was determined; format: functional
Mus musculus [3] = test: In vivo hypoglycemic activity after administration (43 mg/kg) in mice on day 7 was determined; format: functional
Mus musculus [4] = test: In vivo hypoglycemic activity after administration (50 mg/kg) in mice on day 0 was determined; format: functional
Mus musculus [5] = test: In vivo hypoglycemic activity after administration (50 mg/kg) in mice on day 7 was determined; format: functional
Mus musculus [6] = test: In vivo hypoglycemic activity after administration (40 mg/kg) in mice on day 0 was determined; format: functional
Mus musculus [7] = test: In vivo hypoglycemic activity after administration (40 mg/kg) in mice on day 7 was determined; format: functional
Rattus norvegicus [8] = test: Daily food consumption was determined in rat after oral administration of 500 mg/kg; format: functional
Mus musculus [9] = test: Body weight was determined in mouse after oral administration of 20 mg/kg on day 7; format: functional
Mus musculus [10] = test: Daily food consumption was determined in mouse after oral administration of 100 mg/kg; format: functional
Rattus norvegicus [11] = test: Spleen weight was determined in rat after oral administration of 500 mg/kg; format: functional; design: unit not given beside the values
Mus musculus [12] = test: Daily water consumption was determined in mouse after oral administration of 5 mg/kg; format: functional
Mus musculus [13] = test: Daily water consumption was determined in mouse after oral administration of 20 mg/kg; format: functional
Mus musculus [14] = test: Abnormal symptoms was determined in mouse after oral administration of 5 mg/kg; - sign indicates abnormal symptoms in treated mouse; format: functional, organism-based; design: dose 5 mg/kg
Mus musculus [15] = test: Daily food consumption was determined in mouse after oral administration of 20 mg/kg; format: functional
Mus musculus [16] = test: Abnormal symptoms was determined in mouse after oral administration of 20 mg/kg; - sign indicates abnormal symptoms in treated mouse; format: functional, organism-based; design: dose 20 mg/kg
Rattus norvegicus [17] = test: Liver weight was determined in rat after oral administration of 500 mg/kg; format: functional; design: unit not given beside the values
Mus musculus [18] = test: Body weight was determined in mouse after oral administration of 100 mg/kg on day 7; format: functional
Mus musculus [19] = test: Abnormal symptoms was determined in mouse after oral administration of 100 mg/kg; - sign indicates abnormal symptoms in treated mouse; format: functional, organism-based; design: dose 100 mg/kg
Mus musculus [20] = test: Daily food consumption was determined in mouse after oral administration of 500 mg/kg; format: functional
Mus musculus [21] = test: Body weight was determined in mouse after oral administration of 500 mg/kg on day 0; format: functional
Rattus norvegicus [22] = test: Body weight was determined in rat after oral administration of 500 mg/kg on day 0; format: functional
Rattus norvegicus [23] = test: Abnormal symptoms was determined in rat after oral administration of 500 mg/kg; - sign indicates abnormal symptoms in treated mouse; format: functional, organism-based; design: dose 500 mg/kg
Rattus norvegicus [24] = test: Lung weight was determined in rat after oral administration of 500 mg/kg; format: functional; design: unit not given beside the values
Mus musculus [25] = test: Daily water consumption was determined in mouse after oral administration of 100 mg/kg; format: functional
Mus musculus [26] = test: Body weight was determined in mouse after oral administration of 5 mg/kg on day 0; format: functional
Rattus norvegicus [27] = test: Body weight was determined in rat after oral administration of 500 mg/kg on day 7; format: functional
Mus musculus [28] = test: Daily food consumption was determined in mouse after oral administration of 5 mg/kg; format: functional
Mus musculus [29] = test: Body weight was determined in mouse after oral administration of 5 mg/kg on day 7; format: functional
Mus musculus [30] = test: Daily water consumption was determined in mouse after oral administration of 500 mg/kg; format: functional
Rattus norvegicus [31] = test: Daily water consumption was determined in rat after oral administration of 500 mg/kg; format: functional
Mus musculus [32] = test: Body weight was determined in mouse after oral administration of 20 mg/kg on day 0; format: functional
Mus musculus [33] = test: Abnormal symptoms was determined in mouse after oral administration of 500 mg/kg; - sign indicates abnormal symptoms in treated mouse; format: functional, organism-based; design: dose 500 mg/kg
Mus musculus [34] = test: Body weight was determined in mouse after oral administration of 500 mg/kg on day 7; format: functional
Rattus norvegicus [35] = test: Kidney weight was determined in rat after oral administration of 500 mg/kg; format: functional
Mus musculus [36] = test: Body weight was determined in mouse after oral administration of 100 mg/kg on day 0; format: functional

| Structure (SMILES) | Ratio [1] | Blood glucose (Mus musculus [4]) | Blood glucose (Mus musculus [5]) | Food intake (Rattus norvegicus [8]) | Body weight (Mus musculus [9]) | Food intake (Mus musculus [10]) | Organ weight (Rattus norvegicus [11]) | Water consumption (Mus musculus [12]) | Water consumption (Mus musculus [13]) | Activity (Mus musculus [14]) | Food intake (Mus musculus [15]) | Activity (Mus musculus [16]) | Organ weight (Rattus norvegicus [17]) | Body weight (Mus musculus [18]) | Activity (Mus musculus [19]) | Food intake (Mus musculus [20]) | Body weight (Mus musculus [21]) | Body weight (Rattus norvegicus [22]) | Activity (Rattus norvegicus [23]) | Organ weight (Rattus norvegicus [24]) | other results |
| --- | --- | --- | --- | --- | --- | --- | --- | --- | --- | --- | --- | --- | --- | --- | --- | --- | --- | --- | --- | --- | --- |
| CC(=O)Oc1cc(OC(C)=O)c2c(=O)cc(-c3ccccc3)oc2c1 [CHRYSIN DIACETATE] | 72.4 | – | – | – | – | – | – | – | – | – | – | – | – | – | – | – | – | – | – | – | Blood glucose (Mus musculus [2]): 472 mg/dL; Blood glucose (Mus musculus [3]): 341.5 mg/dL |
| CCCOc1cc(O)c2c(=O)cc(-c3ccccc3)oc2c1 | 59.5 | 400 mg/dL | 237.8 mg/dL | – | – | – | – | – | – | – | – | – | – | – | – | – | – | – | – | – | – |
| COc1ccc(/C=C/C(=O)Oc2cc(O)c3c(=O)cc(-c4ccccc4)oc3c2)cc1 | 70 | – | – | – | – | – | – | – | – | – | – | – | – | – | – | – | – | – | – | – | Blood glucose (Mus musculus [6]): 475.9 mg/dL; Blood glucose (Mus musculus [7]): 333.3 mg/dL |
| O=C(/C=C/c1ccccc1)Oc1cc(O)c2c(=O)cc(-c3ccccc3)oc2c1 | 92.6 | 440.6 mg/dL | 407.9 mg/dL | – | – | – | – | – | – | – | – | – | – | – | – | – | – | – | – | – | – |
| CCCCOc1cc(O)c2c(=O)cc(-c3ccccc3)oc2c1 | 46.3 | 545.6 mg/dL | 252.4 mg/dL | 113.58 | 30.6 | 50.53 | 0.71 | 82.5 mL | 79.33 mL | abnormal symptoms in treated mouse | 52.81 | abnormal symptoms in treated mouse | 10.74 | 31 | abnormal symptoms in treated mouse | 50.4 | 24.3 | 235 | abnormal symptoms in treated mouse | 1.22 | Water consumption (Mus musculus [25]): 80.92 mL; Body weight (Mus musculus [26]): 24.9; Body weight (Rattus norvegicus [27]): 293.3; Food intake (Mus musculus [28]): 51.91; Body weight (Mus musculus [29]): 32.7; Water consumption (Mus musculus [30]): 82.83 mL; Water consumption (Rattus norvegicus [31]): 197.16 mL; Body weight (Mus musculus [32]): 23.8; Activity (Mus musculus [33]): abnormal symptoms in treated mouse; Body weight (Mus musculus [34]): 31.3; Organ weight (Rattus norvegicus [35]): 1.04; Body weight (Mus musculus [36]): 23.5 |
| Cc1ccc(C(=O)Oc2cc(O)c3c(=O)cc(-c4ccccc4)oc3c2)cc1 | 56.4 | – | – | 112.83 g | 31.4 | 50.78 g | 0.66 | 80.42 mL | 80.75 mL | abnormal symptoms in treated mouse | 50.6 g | abnormal symptoms in treated mouse | 9.6 | 31.6 | abnormal symptoms in treated mouse | 49.86 g | 24.8 | 237.5 | abnormal symptoms in treated mouse | 1.26 | Blood glucose (Mus musculus [6]): 464.3 mg/dL; Water consumption (Mus musculus [25]): 83.75 mL; Body weight (Mus musculus [26]): 25.1; Body weight (Rattus norvegicus [27]): 302.5; Food intake (Mus musculus [28]): 49.35 g; Body weight (Mus musculus [29]): 32.2; Water consumption (Mus musculus [30]): 82.08 mL; Blood glucose (Mus musculus [7]): 261.8 mg/dL; Water consumption (Rattus norvegicus [31]): 216.83 mL; Body weight (Mus musculus [32]): 24.7; Activity (Mus musculus [33]): abnormal symptoms in treated mouse; Body weight (Mus musculus [34]): 31.2; Organ weight (Rattus norvegicus [35]): 0.98; Body weight (Mus musculus [36]): 25.2 |
| O=C(Cc1ccccc1)Oc1cc(O)c2c(=O)cc(-c3ccccc3)oc2c1 | 103.9 | 496.2 mg/dL | 515.6 mg/dL | – | – | – | – | – | – | – | – | – | – | – | – | – | – | – | – | – | – |
| CCCCCCCCOc1cc(O)c2c(=O)cc(-c3ccccc3)oc2c1 | 51.4 | 411.2 mg/dL | 211.4 mg/dL | 113.08 g | 32.1 | 51.41 g | 0.69 | 79.83 mL | 81.67 mL | abnormal symptoms in treated mouse | 52.57 g | abnormal symptoms in treated mouse | 9.96 | 31.6 | abnormal symptoms in treated mouse | 50.6 g | 24 | 230.8 | abnormal symptoms in treated mouse | 1.26 | Water consumption (Mus musculus [25]): 82.83 mL; Body weight (Mus musculus [26]): 23.8; Body weight (Rattus norvegicus [27]): 290.8; Food intake (Mus musculus [28]): 51.28 g; Body weight (Mus musculus [29]): 30.8; Water consumption (Mus musculus [30]): 80.75 mL; Water consumption (Rattus norvegicus [31]): 205.91 mL; Body weight (Mus musculus [32]): 25.5; Activity (Mus musculus [33]): abnormal symptoms in treated mouse; Body weight (Mus musculus [34]): 30.1; Body weight (Mus musculus [36]): 24.8 |
